ChEMBL document CHEMBL3856244, “Hydrogen peroxide derived from marine peroxy sesquiterpenoids induces apoptosis in HCT116 human colon cancer cells” (Bioorg Med Chem Lett, 2016)
Activity calls are given as the source filed them. No cut-off for these calls is given here.

Tests used:
[1] = Cytotoxicity against human HCT116 cells assessed as decrease in cell viability after 17 hrs by MTT assay; assay type: functional, cell-based; conditions: HCT-116, 17 h
[2] = test system: HCT-116; assay: Cytotoxicity against human HCT116 cells assessed as decrease in cell viability at 6.25 to 200 uM after 17 hrs by MTT assay; assay type: functional, cell-based
[3] = test system: HCT-116; assay: Induction of apoptosis in human HCT116 cells assessed as nuclear condensation at 100 uM after 48 hrs by Hoechst 33342 staining based assay; assay type: functional, cell-based
[4] = test system: HCT-116; assay: Induction of apoptosis in human HCT116 cells assessed as increase in caspase 3/7 activation at 50 to 200 uM after 17 hrs by luciferase coupled luminescence assay; assay type: functional, cell-based
[5] = test system: HCT-116; assay: Induction of ROS generation in human HCT116 cells at 12.5 uM after 5 mins by DCFH-DA probe based fluorescence assay relative to control; assay type: functional, cell-based
[6] = test system: HCT-116; assay: Induction of H2O2 accumulation in human HCT116 cells at 12.5 uM relative to control; assay type: functional

CC1=C[C@@H]2C(=CC1)[C@](C)(OO)CC[C@@H]2C(C)C
IC50 [1]: 61.2 µM | Activity [2]: Active | Activity [3]: Active | Activity [4]: Active | Activity [5]: Active | fold change (FC) [6]: 2 - 3

CC(C)[C@H]1CC[C@H](C)[C@@]23CC[C@@](C)(C=C12)OO3
IC50 [1]: 38.6 µM | Activity [2]: Active | Activity [3]: Active | Activity [4]: Active | Activity [5]: Active | fold change (FC) [6]: 2 - 3

Cc1ccc2c(c1)[C@H](C(C)C)CC[C@@]2(C)OO
IC50 [1]: 43.7 µM | Activity [2]: Active | Activity [3]: Active | Activity [4]: Active | Activity [5]: Active | fold change (FC) [6]: 2 - 3
